This series can be described thus: amide bond formation (macrolactamization of free amino acid tripeptides containing anthranilic acid), HATU (1.2 equiv), Et3N (1.2 equiv), high dilution. As to conditions: 10-membered ring, CH2Cl2, 3.0 mM, 0.0 °C, 2 steps.

SMILES strings stand for the structures.

Take `C=CC(C)(C)[C@@]12C[C@H]3C(=O)N[C@@H](C(C)C)C(=O)Nc4ccccc4C(=O)N3[C@@H]1N(C(C)=O)c1ccccc12` [exo-69 -> L-Trp-exo-11 (slow addition; trace)]: under “from C=CC(C)(C)[C@@]12C[C@@H](C(=O)O)N(C(=O)c3ccccc3NC(=O)[C@@H](N)C(C)C)[C@@H]1N(C(C)=O)c1ccccc12”, the ring closure, yield over several steps was 0%.
With `C=CC(C)(C)[C@]12C[C@H]3C(=O)N[C@@H](C(C)C)C(=O)Nc4ccccc4C(=O)N3[C@H]1N(C(C)=O)c1ccccc12` [endo-75 -> L-Trp-endo-11 (incl. Boc removal)], the ring closure, yield over several steps (from C=CC(C)(C)[C@]12C[C@@H](C(=O)N[C@H](C(=O)Nc3ccccc3C(=O)O)C(C)C)N[C@H]1N(C(C)=O)c1ccccc12, 2.0 h) is 87%.
For `C=CC(C)(C)[C@]12C[C@H]3C(=O)N[C@@H](C(C)C)C(=O)Nc4ccccc4C(=O)N3[C@H]1N(C(C)=O)c1ccccc12` [endo-69 -> L-Trp-endo-11 (slow addition; decomposition)], the ring closure, yield over several steps (from C=CC(C)(C)[C@]12C[C@@H](C(=O)O)N(C(=O)c3ccccc3NC(=O)[C@@H](N)C(C)C)[C@H]1N(C(C)=O)c1ccccc12) worked out at 0%.
Regarding `CC(=O)n1cc(C[C@@H]2NC(=O)c3ccccc3NC(=O)[C@H](C(C)C)NC2=O)c2ccccc21` [H-Trp(1-Ac)-Val-Abz(2)-OH], the ring closure, yield over several steps (from CC(=O)n1cc(C[C@H](N)C(=O)N[C@H](C(=O)Nc2ccccc2C(=O)O)C(C)C)c2ccccc21) was determined as 0%.
Take `CC(=O)n1cc(C[C@H]2NC(=O)c3ccccc3NC(=O)[C@H](C(C)C)NC2=O)c2ccccc21` [H-D-Trp(1-Ac)-Val-Abz(2)-OH]: the ring closure, yield over several steps (from CC(=O)n1cc(C[C@@H](N)C(=O)N[C@H](C(=O)Nc2ccccc2C(=O)O)C(C)C)c2ccccc21, 1.17 h) was found to be 53%.
In the case of `CC(=O)N1c2ccccc2[C@H]2C[C@H]3C(=O)N[C@@H](C(C)C)C(=O)Nc4ccccc4C(=O)N3[C@H]21` (mixture of isomers) [endo-47 -> endo-48 (1 step, from exo/endo mixture)], the ring closure, yield over several steps (from CC(=O)N1c2ccccc2[C@H]2C[C@@H](C(=O)N[C@H](C(=O)Nc3ccccc3C(=O)O)C(C)C)N[C@H]21, 1.0 h) was found to be 19%.
As for `CC(=O)N1c2ccccc2[C@@H]2C[C@H]3C(=O)N[C@@H](C(C)C)C(=O)Nc4ccccc4C(=O)N3[C@@H]21` (mixture of isomers) [exo-47 -> exo-48 (1 step, from exo/endo mixture)], the ring closure, yield over several steps (from CC(=O)N1c2ccccc2[C@@H]2C[C@@H](C(=O)N[C@H](C(=O)Nc3ccccc3C(=O)O)C(C)C)N[C@@H]21, 1.0 h) worked out at 29%.
On to `C=CC(C)(C)[C@@]12C[C@H]3C(=O)N[C@@H](C(C)C)C(=O)Nc4ccccc4C(=O)N3[C@@H]1N(C(C)=O)c1ccccc12` [exo-75 -> L-Trp-exo-11 (incl. Boc removal)], for which the ring closure, yield over several steps (from C=CC(C)(C)[C@@]12C[C@@H](C(=O)N[C@H](C(=O)Nc3ccccc3C(=O)O)C(C)C)N[C@@H]1N(C(C)=O)c1ccccc12, 1.5 h) stood at 97%.
`CC(C)[C@@H]1NC(=O)[C@@H](Cc2cn(C(=O)OC(C)(C)C)c3ccccc23)NC(=O)c2ccccc2NC1=O` [H-D-Trp(1-Boc)-Val-Abz(2)-OH]: the ring closure, yield over several steps (from CC(C)[C@H](NC(=O)[C@H](N)Cc1cn(C(=O)OC(C)(C)C)c2ccccc12)C(=O)Nc1ccccc1C(=O)O, 0.83 h) was 56%.

The values are drawn from paper PMC9552234.
